Laboratory results published in patent US20230085307A1, “PYRIDAZINONE COMPOUND AND HERBICIDE” (NISSAN CHEMICAL CORPORATION, priority 2019, published 2023).

Key:
[1] = tested on: barnyard grass; test: Test Example 5: herbicidal effect by foliage application, plastic box (Table 20, symbol H); format: in vivo, barnyard grass (Echinochloa crus-galli); conditions: foliage application, 320 g/ha
How it was run: (§1)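 Plants sown in sterilized diluvial soil and grown 14 days in a greenhouse at 25° C to 30° C, then sprayed on the foliage with the compound's emulsion diluted in water to a predetermined herbicide amount. Injury to weeds and crops scored three weeks after application on a visual rating scale.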

[2] = tested on: windgrass; test: Test Example 4: herbicidal effect by soil treatment (Table 19, symbol L); format: in vivo, windgrass (Apera spica-venti)
How it was run: (§2)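 Seeds were sown in sterilized diluvial soil and covered with about 1.5 cm of soil. An emulsion formulation diluted with water to a predetermined herbicide amount was sprayed evenly onto the soil surface. Plants grew in a greenhouse at 25° C. to 30° C., and the effect was scored three weeks after application using criteria from an earlier test.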

[3] = tested on: chickweed; test: Test Example 4: herbicidal effect by soil treatment (Table 19, symbol P); format: in vivo, common chickweed (Stellaria media)
How it was run: as §2

[4] = tested on: southern crabgrass; test: Test Example 4: herbicidal effect by soil treatment (Table 19, symbol F); format: in vivo, southern crabgrass (Digitaria ciliaris)
How it was run: as §2

[5] = tested on: persian speedwell; test: Test Example 5: herbicidal effect by foliage application, plastic box (Table 20, symbol R); format: in vivo, Persian speedwell (Veronica persica); conditions: foliage application, 320 g/ha
How it was run: as §1

[6] = tested on: green foxtail; test: Test Example 5: herbicidal effect by foliage application, plastic box (Table 20, symbol G); format: in vivo, green foxtail (Setaria viridis); conditions: foliage application, 320 g/ha
How it was run: as §1

[7] = tested on: southern crabgrass; test: Test Example 5: herbicidal effect by foliage application, plastic box (Table 20, symbol F); format: in vivo, southern crabgrass (Digitaria ciliaris); conditions: foliage application, 320 g/ha
How it was run: as §1

[8] = tested on: Italian ryegrass; test: Test Example 5: herbicidal effect by foliage application, plastic box (Table 20, symbol K); format: in vivo, Italian ryegrass (Lolium multiflorum); conditions: foliage application, 320 g/ha
How it was run: as §1

[9] = tested on: lambsquarters; test: Test Example 5: herbicidal effect by foliage application, plastic box (Table 20, symbol O); format: in vivo, lambsquarters (Chenopodium album); conditions: foliage application, 320 g/ha
How it was run: as §1

[10] = tested on: rice flat sedge; test: Test Example 3: herbicidal effect by foliage application, Wagner pot (Table 18, symbol E); format: in vivo, rice flat sedge (Cyperus iria)
How it was run: (§3)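 Plants were sown in alluvial soil held under 0.1–0.5 cm standing water and grown 14 days in a greenhouse at 25–30 °C. An emulsifiable formulation, water-diluted to the set dose, was then sprayed onto the foliage, and effects were scored three weeks later using previously defined criteria.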

[11] = tested on: Chinese sprangletop; test: Test Example 3: herbicidal effect by foliage application, Wagner pot (Table 18, symbol D); format: in vivo, chinese sprangletop (Leptochloa chinensis)
How it was run: as §3

[12] = tested on: wild oat; test: Test Example 5: herbicidal effect by foliage application, plastic box (Table 20, symbol I); format: in vivo, wild oat (Avena fatua); conditions: foliage application, 320 g/ha
How it was run: as §1

[13] = tested on: false cleavers; test: Test Example 4: herbicidal effect by soil treatment (Table 19, symbol Q); format: in vivo, false cleavers (Galium spurium)
How it was run: as §2

[14] = tested on: lambsquarters; test: Test Example 4: herbicidal effect by soil treatment (Table 19, symbol O); format: in vivo, lambsquarters (Chenopodium album)
How it was run: as §2

[15] = tested on: wild oat; test: Test Example 4: herbicidal effect by soil treatment (Table 19, symbol I); format: in vivo, wild oat (Avena fatua)
How it was run: as §2

[16] = tested on: Italian ryegrass; test: Test Example 4: herbicidal effect by soil treatment (Table 19, symbol K); format: in vivo, Italian ryegrass (Lolium multiflorum)
How it was run: as §2

[17] = tested on: barnyard grass; test: Test Example 3: herbicidal effect by foliage application, Wagner pot (Table 18, symbol H); format: in vivo, barnyard grass (Echinochloa crus-galli)
How it was run: as §3

[18] = tested on: barnyard grass; test: Test Example 4: herbicidal effect by soil treatment (Table 19, symbol H); format: in vivo, barnyard grass (Echinochloa crus-galli)
How it was run: as §2

[19] = tested on: persian speedwell; test: Test Example 4: herbicidal effect by soil treatment (Table 19, symbol R); format: in vivo, Persian speedwell (Veronica persica)
How it was run: as §2

[20] = tested on: green foxtail; test: Test Example 4: herbicidal effect by soil treatment (Table 19, symbol G); format: in vivo, green foxtail (Setaria viridis)
How it was run: as §2

[21] = tested on: redroot pigweed; test: Test Example 4: herbicidal effect by soil treatment (Table 19, symbol N); format: in vivo, redroot pigweed (Amaranthus retroflexus)
How it was run: as §2

[22] = tested on: windgrass; test: Test Example 5: herbicidal effect by foliage application, plastic box (Table 20, symbol L); format: in vivo, windgrass (Apera spica-venti); conditions: foliage application, 320 g/ha
How it was run: as §1

[23] = tested on: blackgrass; test: Test Example 5: herbicidal effect by foliage application, plastic box (Table 20, symbol J); format: in vivo, blackgrass (Alopecurus myosuroides); conditions: foliage application, 320 g/ha
How it was run: as §1

[24] = tested on: blackgrass; test: Test Example 4: herbicidal effect by soil treatment (Table 19, symbol J); format: in vivo, blackgrass (Alopecurus myosuroides)
How it was run: as §2

[25] = tested on: velvetleaf; test: Test Example 4: herbicidal effect by soil treatment (Table 19, symbol M); format: in vivo, velvetleaf (Abutilon theophrasti)
How it was run: as §2

[26] = tested on: velvetleaf; test: Test Example 5: herbicidal effect by foliage application, plastic box (Table 20, symbol M); format: in vivo, velvetleaf (Abutilon theophrasti); conditions: foliage application, 320 g/ha
How it was run: as §1

[27] = amount of applied herbicide 320 g/ha

COCCOCOc1c(C)nn(C)c(=O)c1-c1c(-c2ccc(OC(C)C#N)cc2)sc2ccccc12 (racemic) [1-237]
effect on barnyard grass (H) ([1]; 3 weeks after application): 4 (Herbicidal rate of 70% or more and less than 90%) | L: windgrass, herbicidal effect rating ([2]; AAH 320 g/ha): 0 (Herbicidal rate of 5% or less (almost no effect)) | P: chickweed, herbicidal effect rating ([3]; AAH 320 g/ha): 3 (Herbicidal rate of 40% or more and less than 70%) | F: southern crabgrass, herbicidal effect rating ([4]; AAH 320 g/ha): 1 (Herbicidal rate of 5% or more and less than 20%) | effect on persian speedwell (R) ([5]; 3 weeks after application): 5 (Herbicidal rate of 90% or more (almost completely withered)) | effect on green foxtail (G) ([6]; 3 weeks after application): 5 (Herbicidal rate of 90% or more (almost completely withered)) | effect on southern crabgrass (F) ([7]; 3 weeks after application): 3 (Herbicidal rate of 40% or more and less than 70%) | effect on Italian ryegrass (K) ([8]; 3 weeks after application): 4 (Herbicidal rate of 70% or more and less than 90%) | effect on lambsquarters (O) ([9]; 3 weeks after application): 5 (Herbicidal rate of 90% or more (almost completely withered)) | herbicidal effect on E (rice flat sedge), rating 0-5 ([10]; 320 g/ha): 4 (Herbicidal rate of 70% or more and less than 90%) | herbicidal effect on D (Chinese sprangletop), rating 0-5 ([11]; 320 g/ha): 4 (Herbicidal rate of 70% or more and less than 90%) | effect on wild oat (I) ([12]; 3 weeks after application): 3 (Herbicidal rate of 40% or more and less than 70%) | Q: false cleavers, herbicidal effect rating ([13]; AAH 320 g/ha): 0 (Herbicidal rate of 5% or less (almost no effect)) | O: lambsquarters, herbicidal effect rating ([14]; AAH 320 g/ha): 3 (Herbicidal rate of 40% or more and less than 70%) | I: wild oat, herbicidal effect rating ([15]; AAH 320 g/ha): 0 (Herbicidal rate of 5% or less (almost no effect)) | K: Italian ryegrass, herbicidal effect rating ([16]; AAH 320 g/ha): 3 (Herbicidal rate of 40% or more and less than 70%) | herbicidal effect on H (barnyard grass), rating 0-5 ([17]; 320 g/ha): 5 (Herbicidal rate of 90% or more (almost completely withered)) | H: barnyard grass, herbicidal effect rating ([18]; AAH 320 g/ha): 0 (Herbicidal rate of 5% or less (almost no effect)) | R: persian speedwell, herbicidal effect rating ([19]; AAH 320 g/ha): 5 (Herbicidal rate of 90% or more (almost completely withered)) | G: green foxtail, herbicidal effect rating ([20]; AAH 320 g/ha): 4 (Herbicidal rate of 70% or more and less than 90%) | N: redroot pigweed, herbicidal effect rating ([21]; AAH 320 g/ha): 5 (Herbicidal rate of 90% or more (almost completely withered)) | effect on windgrass (L) ([22]; 3 weeks after application): 1 (Herbicidal rate of 5% or more and less than 20%) | effect on blackgrass (J) ([23]; 3 weeks after application): 4 (Herbicidal rate of 70% or more and less than 90%) | J: blackgrass, herbicidal effect rating ([24]; AAH 320 g/ha): 0 (Herbicidal rate of 5% or less (almost no effect)) | M: velvetleaf, herbicidal effect rating ([25]; AAH 320 g/ha): 1 (Herbicidal rate of 5% or more and less than 20%) | effect on velvetleaf (M) ([26]; 3 weeks after application): 4 (Herbicidal rate of 70% or more and less than 90%)

Cc1nn(C)c(=O)c(-c2c(-c3ccc(F)cc3)oc3ccc(F)cc23)c1O [9-014]
herbicidal effect on barnyard grass (H) ([1]; three weeks after application): 4 (Herbicidal rate of 70% or more and less than 90%) | L: windgrass, herbicidal effect grade [2, 27]: 0 (Herbicidal rate of 5% or less (almost no effect)) | P: chickweed, herbicidal effect grade [3, 27]: 5 (Herbicidal rate of 90% or more (almost completely withered)) | F: southern crabgrass, herbicidal effect grade [4, 27]: 4 (Herbicidal rate of 70% or more and less than 90%) | herbicidal effect on persian speedwell (R) ([5]; three weeks after application): 5 (Herbicidal rate of 90% or more (almost completely withered)) | herbicidal effect on green foxtail (G) ([6]; three weeks after application): 4 (Herbicidal rate of 70% or more and less than 90%) | herbicidal effect on southern crabgrass (F) ([7]; three weeks after application): 2 (Herbicidal rate of 20% or more and less than 40%) | herbicidal effect on Italian ryegrass (K) ([8]; three weeks after application): 5 (Herbicidal rate of 90% or more (almost completely withered)) | herbicidal effect on lambsquarters (O) ([9]; three weeks after application): 4 (Herbicidal rate of 70% or more and less than 90%) | Herbicidal effect on E (rice flat sedge), foliage application [10, 27]: 5 (Herbicidal rate of 90% or more (almost completely withered)) | Herbicidal effect on D (Chinese sprangletop), foliage application [11, 27]: 3 (Herbicidal rate of 40% or more and less than 70%) | herbicidal effect on wild oat (I) ([12]; three weeks after application): 3 (Herbicidal rate of 40% or more and less than 70%) | Q: false cleavers, herbicidal effect grade [13, 27]: 0 (Herbicidal rate of 5% or less (almost no effect)) | O: lambsquarters, herbicidal effect grade [14, 27]: 3 (Herbicidal rate of 40% or more and less than 70%) | I: wild oat, herbicidal effect grade [15, 27]: 1 (Herbicidal rate of 5% or more and less than 20%) | K: Italian ryegrass, herbicidal effect grade [16, 27]: 5 (Herbicidal rate of 90% or more (almost completely withered)) | Herbicidal effect on H (barnyard grass), foliage application [17, 27]: 3 (Herbicidal rate of 40% or more and less than 70%) | H: barnyard grass, herbicidal effect grade [18, 27]: 4 (Herbicidal rate of 70% or more and less than 90%) | R: persian speedwell, herbicidal effect grade [19, 27]: 4 (Herbicidal rate of 70% or more and less than 90%) | G: green foxtail, herbicidal effect grade [20, 27]: 5 (Herbicidal rate of 90% or more (almost completely withered)) | N: redroot pigweed, herbicidal effect grade [21, 27]: 5 (Herbicidal rate of 90% or more (almost completely withered)) | herbicidal effect on windgrass (L) ([22]; three weeks after application): 4 (Herbicidal rate of 70% or more and less than 90%) | herbicidal effect on blackgrass (J) ([23]; three weeks after application): 4 (Herbicidal rate of 70% or more and less than 90%) | J: blackgrass, herbicidal effect grade [24, 27]: 4 (Herbicidal rate of 70% or more and less than 90%) | M: velvetleaf, herbicidal effect grade [25, 27]: 4 (Herbicidal rate of 70% or more and less than 90%) | herbicidal effect on velvetleaf (M) ([26]; three weeks after application): 3 (Herbicidal rate of 40% or more and less than 70%)
